# Columns and labels:
# [1] = tested on: HIV-1 SDM strain G140S-Q148H; test: cell-based HIV-1 replication assay in MT4-LTR-EGFP cells, G140S-Q148H mutant; details: fold change in activity against G140S-Q148H mutant compared to wild type HIV
# Excerpt: (§1) MT4-LTR-enhanced green fluorescent protein (EGFP) cells were obtained by transfecting MT4 cells with a selectable construct encompassing the coding sequences for the HIV LTR as a promoter for the expression of EGFP and subsequent selection of permanently transfected cells. MT4-cytomegalovirus (CMV)-EGFP cells were obtained by selection for permanently transformed MT4 cells with a CMV-EGFP reporter gene. Cell lines were maintained in RPMI 1640 medium supplemented with 10% heat-inactivated fetal calf serum, 2 mM L-glutamine, 0.1% NaHCO3, and antibiotics (0.02% gentamicin and 0.8% G418) and incubated in a humidified incubator with a 5% CO2 atmosphere at 37° C.
# (§2) N155H and Q148R mutant Integrase coding sequences were constructed in the pUC19-5′HXB2D vector (XbaI-SalI fragment of pHXB2D), containing the HIV-1 clone HXB2D IN coding sequence, by using a QuikChange site-directed mutagenesis kit (Stratagene, La Jolla, Calif.) and HPLC-purified primers (Genset Oligos, La Jolla, Calif.). Altered plasmid sequences were confirmed by dideoxyribose sequencing. For generation of site-directed mutant (SDM) virus stocks, MT4 cells were subcultured at a density of 250,000 cells/ml on the day before transfection. Cells were pelleted and resuspended in phosphate-buffered saline at a concentration of 3.1×10^6 cells/ml. A 0.8-ml portion ([…]) was used for each transfection. Transfections were performed with a Bio-Rad Gene Pulser (Bio-Rad, Hercules, Calif.) with 0.4-cm electrode cuvettes (Bio-Rad). Cells were electroporated with 10 μg of SalI-linearized pUC19-3′HXB2D (SalI-XbaI fragment of pHXB2D) and 5 μg of SalI-digested SDM at 250 μF and 300 V, followed by a 30-min incubation at room temperature. Ten ml of fresh culture medium was then added to the suspension of transfected cells, and incubation was performed at 37° C. in a humidified atmosphere with 5% CO2. Cell cultures were monitored for the appearance of cytopathic effect (CPE).
# (§3) The inhibitory antiviral activity of different compounds was determined in a cell-based HIV-1 replication assay. MT4-LTR-EGFP cells (150,000 cells/ml) were infected with HIV-1 (IIIB or SDM strains Q148R, N155H, or G140S-Q148H; multiplicity of infection [MOI] of 0.0025) in the presence or absence of inhibitor. After 3 days of incubation, the inhibition of HIV replication was quantified by measuring EGFP fluorescence, and expressed as the compound concentration required for 50% inhibition of HIV-1 replication in cell culture (EC50).
# HIV-1 (IIIB) = test: cell-based HIV-1 replication assay in MT4-LTR-EGFP cells, wild type; details: Human immunodeficiency virus 1, 72 h, 3 days, EGFP fluorescence
# Excerpt: as §1
# as §3, with “(EC50). The antiviral activities of the different compounds are reported in Table 4 and expressed as EC50 for the inhibition of wild type HIV (IIIB EC50) and as fold change in activity against the mutant strains (FC-Q148R, FC-N155H, FC-G140S-Q148H) compared to the activity against wild type HIV.” for “(EC50).”
# [2] = tested on: cryopreserved hepatocytes of human subjects; test: metabolic stability in human hepatocytes; type: in vitro ADME; details: 1 μM, percentage turnover; for Human (% TO) 15 min: 15 min incubation; for Human (% TO) 60 min: 60 min incubation
# Protocol: (§4) For determining in vitro metabolic stability, cryopreserved hepatocytes from Sprague Dawley rats and of human subjects (pool of male and female) were obtained from an external supplier (Cellz Direct Inc., Paisly, UK). Tested compounds were dissolved in DMSO and this stock solution was used to spike rat and human hepatocyte cell cultures (10^6 cells/ml) at a final concentration of 1 μM (final percentage of DMSO was 0.02% (v/v)). Incubations were performed for up to 60 min at approximately 37° C. and terminated by the addition of two volumes of DMSO. Samples were then centrifuged and aliquots of the supernatant analyzed using liquid chromatography (LC) with electrospray mass spectrometric detection (MS/MS) to monitor the disappearance of parent compound by single reaction monitoring (SRM) and reverse-phase chromotatography with a gradient of acetonitrile and water containing 0.1% (v/v) formic acid. Based on peak area, the percentage of parent compound remaining after 15 and 60 min incubation was calculated and the results, expressed as percentage turnover (TO) relative to time zero controls.
# HIV-1 SDM strain N155H = test: cell-based HIV-1 replication assay in MT4-LTR-EGFP cells, N155H mutant; details: fold change in activity against N155H mutant compared to wild type HIV
# Excerpt: as §1, §2, §3
# [3] = pharmacokinetic evaluation in the rat; type: in vivo, male Sprague-Dawley rats; details: intravenous bolus 2 mg/kg; for clearance / half-life / Vd: male, Sprague-Dawley, plasma, iv; for clearance / CLp: plasma clearance; for clearance: read-out: CLp; for half-life / t1/2: terminal phase elimination half-life; for Vd: read-out: Vss
# Protocol: For determining the pharmacokinetic properties in rat, each HIV integrase inhibitor was dissolved in PEG400/normal saline (70:30 (v/v)) at a nominal concentration of 1 mg/ml and administered (2 ml/kg) to male Sprague-Dawley rats (n=3 per test compound) as an intravenous bolus via a saphenous vein at a dose level of 2 mg/kg. […] Plasma was obtained by centrifugation and stored at −20° C. prior to analysis. Analysis was performed using liquid chromatography (LC) with tandem mass spectrometric detection (MS/MS) in positive ion mode. Each HIV integrase inhibitor was eluted from a reversed-phase column with a gradient of acetonitrile and water containing 0.1% (v/v) formic acid. At the time of analysis plasma samples (50 p. 1) were thawed and […] with 200 μl of acetonitrile containing 0.1% (v/v) formic acid and centrifuged. Aliquots of the supernatant (100 μl) were diluted with 200 μl of water containing 25% (v/v) methanol and 0.1% (v/v) formic acid and injected via an electrospray interface directly into the Mass Spectrometer. Calibration standards and quality controls were prepared in rat plasma at the same time as the samples and analyzed before and after the samples containing HIV integrase inhibitor. Non-compartmental pharmacokinetic analysis of the plasma concentration-time curves was performed using WinNonLin software to provide estimates of the plasma clearance (CLp), volume of distribution at steady-state (Vss) and terminal phase elimination half-life (t1/2).
# HIV-1 SDM strain Q148R = test: cell-based HIV-1 replication assay in MT4-LTR-EGFP cells, Q148R mutant; details: fold change in activity against Q148R mutant compared to wild type HIV
# Excerpt: as §1, §2, §3
# HIV-1 LAI (IIIB) = test: antiviral assay in the presence of 50% human serum; type: cell-based; details: MT-4-LTR-EGFP cells, 4 days, resazurin cell viability
# Protocol: For the antiviral assay in the presence of 50% human serum, MT-4-LTR-EGFP cells were infected with HIV-1 LAI (IIIB) at a MOI of 0.001 to 0.01 CCID50/cell in RPMI1640 medium. Following 1 h of incubation, cells were washed and plated into a 96-well plate containing serial dilutions of test compound in the presence of 10% fetal calf serum or 50% human serum. After 4 days of incubation, the EC50 in the presence of 50% human serum (EC50/HS) was determined by a cell viability assay using resazurin (as described by Fields, R. D., and M. V. Lancaster (1993) Am. Biotechnol. Lab. 11:48-50).
# [4] = tested on: cryopreserved hepatocytes from Sprague Dawley rats; test: metabolic stability in rat hepatocytes; type: in vitro ADME; details: 1 μM, percentage turnover; for Rat (% TO) 15 min: 15 min incubation; for Rat (% TO) 60 min: 60 min incubation
# Protocol: as §4
# [5] = 2 mg/kg, volume of distribution at steady-state
# [6] = Human immunodeficiency virus 1, IIIB, 96 h
Structure (SMILES),FC-G140S-Q148H [1],EC50 (HIV-1 (IIIB)),Human (% TO) 15 min [2],Human (% TO) 60 min [2],FC-N155H (HIV-1 SDM strain N155H),clearance ([3]; 2 mg/kg),half-life ([3]; 2 mg/kg),"Vd [3, 5]",FC-Q148R (HIV-1 SDM strain Q148R),EC50 (HIV-1 LAI (IIIB); [6]),Rat (% TO) 15 min [4],Rat (% TO) 60 min [4],melting point,CLp ([3]; 2 mg/kg),t1/2 ([3]; 2 mg/kg),CLp [3],t1/2 [3],Vss ([3]; volume of distribution at steady-state),EC50 (HIV-1 LAI (IIIB))
CCN1C[C@H](C)n2c(c(O)c3c(=O)n4nc(c32)N(C)S(=O)(=O)CCCCOc2cc(F)ccc2C4)C1=O [Compound 1],2.6,0.92 nM,16 % TO,31 % TO,3.2,8 mL/min/kg,4.8 h,0.8 L/kg,0.7,3 nM,30 % TO,42 % TO,298.6 to 300.6 °C,–,–,–,–,–,–
CCN1C[C@H](C)n2c(c(O)c3c(=O)n4nc(c32)C(=O)NCCCCCOc2cc(F)ccc2C4)C1=O [Compound 3],8.1,2.35 nM,–,–,3.9,6 mL/min/kg,4.4 h,–,0.9,13 nM,–,–,128.21 °C,8 mL/min/kg,7.8 h,–,–,–,–
CCN1C[C@H](C)n2c(c(O)c3c(=O)n4nc(c32)C(=O)NCCCCCOc2cc(F)c(F)cc2C4)C1=O [Compound 4],10.9,2.61 nM,–,–,6.1,–,–,–,1.2,10 nM,–,–,127.49 to 128.63 °C,–,–,–,–,–,–
CCN1C[C@H](C)n2c(c(O)c3c(=O)n4nc(c32)N(C)S(=O)(=O)CCCCOCc2cc(F)ccc2C4)C1=O [Compound 48],1.3,–,38 % TO,72 % TO,4.7,–,–,–,0.5,–,65 % TO,86 % TO,–,–,–,20 mL/min/kg,1.4 h,0.7 L/kg,4 nM
"CCN1C[C@H](C)n2c(c(O)c3c(=O)n(Cc4ccc(F)c(Cl)c4)nc(C(=O)NC)c32)C1=O [Compound 52r, reference compound]",56.9,3.4 nM,25 % TO,44 % TO,6.8,5 mL/min/kg,1.6 h,0.2 L/kg,1.2,29 nM,38 % TO,76 % TO,–,–,–,–,–,–,–
"CCN1C[C@H](C)n2c(c(O)c3c(=O)n(Cc4ccc(F)cc4)nc(N(C)S(C)(=O)=O)c32)C1=O [Compound 53r, reference compound]",2.0,0.99 nM,41 % TO,84 % TO,4.9,75 mL/min/kg,1.7 h,2.9 L/kg,0.4,3 nM,60 % TO,89 % TO,–,–,–,–,–,–,–
"CCN1C[C@@H](C)n2c(c(O)c3c(=O)n(Cc4ccc(F)c(Cl)c4)nc(N4CCN(C)S4(=O)=O)c32)C1=O [Compound 54r, reference compound]",3.1,2.04 nM,16 % TO,23 % TO,4.4,40 mL/min/kg,1.5 h,2.2 L/kg,0.4,7 nM,32 % TO,46 % TO,–,–,–,–,–,–,–

# From US8716293B2, “Macrocyclic integrase inhibitors” (Janssen R&D Ireland, priority 2010, dated 2014)
